# According to article PMC2219267 (The Journal of General Physiology, 1996):
# Target: T1, band 3 (Homo sapiens, UniProt P02730)
# T1 sequence (P02730 1-911): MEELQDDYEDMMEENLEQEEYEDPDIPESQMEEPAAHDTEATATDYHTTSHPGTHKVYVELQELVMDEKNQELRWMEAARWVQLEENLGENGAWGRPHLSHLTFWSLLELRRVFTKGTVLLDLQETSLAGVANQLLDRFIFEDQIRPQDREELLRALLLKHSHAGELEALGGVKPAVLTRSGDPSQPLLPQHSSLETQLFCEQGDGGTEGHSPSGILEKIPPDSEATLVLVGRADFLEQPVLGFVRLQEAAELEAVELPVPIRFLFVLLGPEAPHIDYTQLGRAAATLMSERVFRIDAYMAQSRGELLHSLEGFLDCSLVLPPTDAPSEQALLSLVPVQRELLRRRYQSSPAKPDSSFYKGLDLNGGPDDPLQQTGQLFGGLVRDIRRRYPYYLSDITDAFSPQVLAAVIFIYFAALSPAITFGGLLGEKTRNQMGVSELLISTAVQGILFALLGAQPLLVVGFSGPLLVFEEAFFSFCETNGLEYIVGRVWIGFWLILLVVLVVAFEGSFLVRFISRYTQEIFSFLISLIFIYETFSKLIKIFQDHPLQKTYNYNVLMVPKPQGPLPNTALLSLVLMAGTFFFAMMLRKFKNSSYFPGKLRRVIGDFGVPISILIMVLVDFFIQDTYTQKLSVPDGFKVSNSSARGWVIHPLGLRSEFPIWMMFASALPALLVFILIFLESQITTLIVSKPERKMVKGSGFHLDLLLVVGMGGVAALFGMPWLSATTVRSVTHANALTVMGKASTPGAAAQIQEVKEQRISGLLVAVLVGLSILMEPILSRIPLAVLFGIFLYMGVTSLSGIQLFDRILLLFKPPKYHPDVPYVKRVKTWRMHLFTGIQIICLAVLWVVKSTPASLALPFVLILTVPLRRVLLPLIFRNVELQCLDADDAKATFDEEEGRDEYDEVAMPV
# Experiment: 36Cl exchange flux inhibition in red blood cells, Dixon plots
# Type: cell-based
# Details: for ID50 for iodide in the medium with low Cl- concentration: 0°C; for DS·Clo (Dixon slope times [Clo]) / Dixon slope (DS) for Io inhibition of Cl- exchange / High/low: DS·Clo at the highest [Clo] divided by that at the given [Clo]: sucrose
smiles,measurement,setting,value
"[I-].[K+] [iodide, potassium iodide]",ID50 for iodide in the medium with low Cl- concentration,"exp 60, pHo 7.2, Hepes, Cli 129 mM, low Clo 2.0 mM",2.77 mM
same,DS·Clo (Dixon slope times [Clo]),"exp 60, pHo 7.2, Clo 2 mM",0.0823
same,Dixon slope (DS) for Io inhibition of Cl- exchange,"exp 60, pHo 7.2, Clo 2 mM",0.0412
same,High/low: DS·Clo at the highest [Clo] divided by that at the given [Clo],"exp 60, pHo 7.2, Clo 2 mM",4.69
same,DS·Clo (Dixon slope times [Clo]),"exp 60, pHo 7.2, Clo 150 mM",0.386
same,Dixon slope (DS) for Io inhibition of Cl- exchange,"exp 60, pHo 7.2, Clo 150 mM",0.00257
same,ID50 for iodide in the medium with low Cl- concentration,"exp 60, pHo 10.7, CHES, Cli 129 mM, low Clo 2.0 mM",12.9 mM
same,DS·Clo (Dixon slope times [Clo]),"exp 60, pHo 10.7, Clo 2 mM",0.1169
same,Dixon slope (DS) for Io inhibition of Cl- exchange,"exp 60, pHo 10.7, Clo 2 mM",0.0584
same,High/low: DS·Clo at the highest [Clo] divided by that at the given [Clo],"exp 60, pHo 10.7, Clo 2 mM",1.79
same,DS·Clo (Dixon slope times [Clo]),"exp 60, pHo 10.7, Clo 150 mM",0.2096
same,Dixon slope (DS) for Io inhibition of Cl- exchange,"exp 60, pHo 10.7, Clo 150 mM",0.0014
same,ID50 for iodide in the medium with low Cl- concentration,"exp 60a, pHo 7.2, Hepes, Cli 149 mM, low Clo 1.0 mM",2.44 mM
same,DS·Clo (Dixon slope times [Clo]),"exp 60a, pHo 7.2, Clo 1 mM",0.0509
same,Dixon slope (DS) for Io inhibition of Cl- exchange,"exp 60a, pHo 7.2, Clo 1 mM",0.0509
same,High/low: DS·Clo at the highest [Clo] divided by that at the given [Clo],"exp 60a, pHo 7.2, Clo 1 mM",6.67
same,DS·Clo (Dixon slope times [Clo]),"exp 60a, pHo 7.2, Clo 150 mM",0.339
same,Dixon slope (DS) for Io inhibition of Cl- exchange,"exp 60a, pHo 7.2, Clo 150 mM",0.00226
same,ID50 for iodide in the medium with low Cl- concentration,"exp 60a, pHo 10.7, CHES, Cli 149 mM, low Clo 2.0 mM",22.6 mM
same,DS·Clo (Dixon slope times [Clo]),"exp 60a, pHo 10.7, Clo 2 mM",0.1078
same,Dixon slope (DS) for Io inhibition of Cl- exchange,"exp 60a, pHo 10.7, Clo 2 mM",0.0539
same,High/low: DS·Clo at the highest [Clo] divided by that at the given [Clo],"exp 60a, pHo 10.7, Clo 2 mM",2.13
same,DS·Clo (Dixon slope times [Clo]),"exp 60a, pHo 10.7, Clo 150 mM",0.2300
same,Dixon slope (DS) for Io inhibition of Cl- exchange,"exp 60a, pHo 10.7, Clo 150 mM",0.00153
same,ID50 for iodide in the medium with low Cl- concentration,"exp 61, pHo 11.6, CAPS, Cli 131 mM, low Clo 50 mM",34.9 mM
same,DS·Clo (Dixon slope times [Clo]),"exp 61, pHo 11.6, Clo 50 mM",0.2858
same,Dixon slope (DS) for Io inhibition of Cl- exchange,"exp 61, pHo 11.6, Clo 50 mM",0.00572
same,High/low: DS·Clo at the highest [Clo] divided by that at the given [Clo],"exp 61, pHo 11.6, Clo 50 mM",0.94
same,DS·Clo (Dixon slope times [Clo]),"exp 61, pHo 11.6, Clo 150 mM",0.2682
same,Dixon slope (DS) for Io inhibition of Cl- exchange,"exp 61, pHo 11.6, Clo 150 mM",0.00179
same,ID50 for iodide in the medium with low Cl- concentration,"exp 61a, pHo 11.6, CAPS, Cli 144 mM, low Clo 28 mM",46.6 mM
same,DS·Clo (Dixon slope times [Clo]),"exp 61a, pHo 11.6, Clo 27.5 mM",0.2089
same,Dixon slope (DS) for Io inhibition of Cl- exchange,"exp 61a, pHo 11.6, Clo 27.5 mM",0.0076
same,High/low: DS·Clo at the highest [Clo] divided by that at the given [Clo],"exp 61a, pHo 11.6, Clo 27.5 mM",0.77
same,DS·Clo (Dixon slope times [Clo]),"exp 61a, pHo 11.6, Clo I10 mM",0.1613
same,Dixon slope (DS) for Io inhibition of Cl- exchange,"exp 61a, pHo 11.6, Clo I10 mM",0.00147
same,ID50 for iodide in the medium with low Cl- concentration,"exp 64, pHo 8.66, CHES, Cli 138 mM, low Clo 0.9 mM",3.06 mM
same,ID50 for iodide in the medium with low Cl- concentration,"exp 64, pHo 9.9, CHES, Cli 138 mM, low Clo 2.2 mM",7.48 mM
same,ID50 for iodide in the medium with low Cl- concentration,"exp 64a, pHo 8.66, CHES, Cli 137 mM, low Clo 0.9 mM",2.24 mM
same,ID50 for iodide in the medium with low Cl- concentration,"exp 64a, pHo 9.9, CHES, Cli 137 mM, low Clo 2.2 mM",7.57 mM
same,ID50 for iodide in the medium with low Cl- concentration,"exp 67, pHo 8.5, CHES, Cli 144 mM, low Clo 0.6 mM",2.18 mM
same,ID50 for iodide in the medium with low Cl- concentration,"exp 70, pHo 7.2, Hepes, Cli 147 mM, low Clo 0.6 mM",1.47 mM
same,DS·Clo (Dixon slope times [Clo]),"exp 70, pHo 7.2, Clo 0.59 mM",0.0584
same,Dixon slope (DS) for Io inhibition of Cl- exchange,"exp 70, pHo 7.2, Clo 0.59 mM",0.0996
same,High/low: DS·Clo at the highest [Clo] divided by that at the given [Clo],"exp 70, pHo 7.2, Clo 0.59 mM",5.52
same,DS·Clo (Dixon slope times [Clo]),"exp 70, pHo 7.2, Clo 110 mM",0.322
same,Dixon slope (DS) for Io inhibition of Cl- exchange,"exp 70, pHo 7.2, Clo 110 mM",0.00293
same,ID50 for iodide in the medium with low Cl- concentration,"exp 70, pHo 8.5, CHES, Cli 147 mM, low Clo 0.6 mM",1.82 mM
same,ID50 for iodide in the medium with low Cl- concentration,"exp 72, pHo 8.0, Hepes, Cli 129 mM, low Clo 0.9 mM",1.82 mM
same,ID50 for iodide in the medium with low Cl- concentration,"exp 72, pHo 9.2, CHES, Cli 129 mM, low Clo 0.9 mM",4.19 mM
same,ID50 for iodide in the medium with low Cl- concentration,"exp 74, pHo 8.5, CHES, Cli 156 mM, low Clo 1.1 mM",2.10 mM
same,ID50 for iodide in the medium with low Cl- concentration,"exp 80, pHo 9.2, CHES, Cli 142 mM, low Clo 0.9 mM",3.88 mM
same,ID50 for iodide in the medium with low Cl- concentration,"exp 81, pHo 8.5, Hepes, Cli 142 mM, low Clo 0.6 mM",2.31 mM
same,ID50 for iodide in the medium with low Cl- concentration,"exp 81, pHo 10, CHES, Cli 142 mM, low Clo 1.7 mM",7.81 mM
same,ID50 for iodide in the medium with low Cl- concentration,"exp 82, pHo 10, CHES, Cli 138 mM, low Clo 1.7 mM",9.85 mM
same,ID50 for iodide in the medium with low Cl- concentration,"exp 82, pHo 10.6, CHES, Cli 138 mM, low Clo 1.7 mM",19.8 mM
same,ID50 for iodide in the medium with low Cl- concentration,"exp 83, pHo 10, CHES, Cli 129 mM, low Clo 1.7 mM",6.58 mM
